Laboratory results: patent US10597388B2, “Pyridazinone herbicides” (FMC CORPORATION, priority 2014, dated 2020)

Tests used:
Format in all cases: in vivo
[1] = test system: sedge, umbrella (small-flower umbrella sedge, Cyperus difformis); test: Test B flooded paddy test; settings: 250 g ai/ha, Flood; visual rating on scale of 0 to 100 where 0 is no effect and 100 is complete control; 13 to 15 d after treatment
In short: (§1)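 Ratings use a 0-100 visual scale, where 100 is complete control, and compare treated plants with controls after 13 to 15 d of greenhouse growth. Compound went straight into paddy water kept 3 cm over the soil surface, applied to seedlings at the 2-leaf stage.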

[2] = test system: barnyardgrass (Echinochloa crus-galli); test: Test B flooded paddy test; settings: 250 g ai/ha, Flood; visual rating on scale of 0 to 100 where 0 is no effect and 100 is complete control; 13 to 15 d after treatment
In short: as §1

rice (Oryza sativa) = test: Test B flooded paddy test; settings: 250 g ai/ha, Flood; visual rating on scale of 0 to 100 where 0 is no effect and 100 is complete control; 13 to 15 d after treatment
In short: as §1

[3] = test system: ducksalad (Heteranthera limosa); test: Test B flooded paddy test; settings: 250 g ai/ha, Flood; visual rating on scale of 0 to 100 where 0 is no effect and 100 is complete control; 13 to 15 d after treatment
In short: as §1

[4] = test system: foxtail, giant (giant foxtail, Setaria faberii); test: Test A greenhouse herbicide test, pre- and postemergence
In short: (§2)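 Visual injury ratings, 0 (no effect) to 100 (complete control), versus untreated plants after roughly 10 d in a greenhouse. Compounds, formulated in a surfactant-containing non-phytotoxic solvent, were sprayed on loam–sand soil after sowing (pre) or on one- to two-leaf plants 2–10 cm tall (post).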

corn (Zea mays) = test: as above; settings: Postemergence
In short: as §2

[5] = test system: ryegrass, Italian (Italian ryegrass, Lolium multiflorum); test: as above
In short: as §2

[6] = test system: ragweed (common ragweed, Ambrosia elatior); test: as above
In short: as §2

[7] = test system: barnyardgrass (Echinochloa crus-galli); test: as above
In short: as §2

[8] = test system: pigweed (Amaranthus retroflexus); test: as above
In short: as §2

kochia (Kochia scoparia) = test: as above
In short: as §2

[9] = test system: wheat (Triticum aestivum); test: as above; settings: Postemergence
In short: as §2

[10] = test system: galium (catchweed bedstraw, Galium aparine); test: Test A greenhouse herbicide test, postemergence
In short: (§3)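 Scores are visual injury ratings from 0 (no effect) to 100 (complete control) versus untreated plants, taken roughly 10 d after treatment in the greenhouse. Treatment was postemergence, on one- to two-leaf plants 2–10 cm high growing in a loam soil/sand mix.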

[11] = test system: blackgrass (Alopecurus myosuroides); test: Test A greenhouse herbicide test, postemergence
In short: as §3

[12] = Postemergence, 125 g ai/ha, 0 to 100 scale where 0 is no effect and 100 is complete control
[13] = Postemergence, 500 g ai/ha, visual rating after approx. 10 d, 0 to 100 scale (0 no effect, 100 complete control)
[14] = Preemergence, 125 g ai/ha, 0 to 100 scale where 0 is no effect and 100 is complete control
[15] = Preemergence, 500 g ai/ha, 0 to 100 scale where 0 is no effect and 100 is complete control
[16] = 125 g ai/ha, 0 to 100 scale where 0 is no effect and 100 is complete control
[17] = 500 g ai/ha, visual rating after approx. 10 d, 0 to 100 scale (0 no effect, 100 complete control)
[18] = Postemergence, 125 g ai/ha, 0 to 100 scale, 0 no effect, 100 complete control
[19] = Preemergence, 125 g ai/ha, visual injury rating, 0 to 100 scale (0 no effect, 100 complete control), approx. 10 d
[20] = 125 g ai/ha, 0 to 100 scale, 0 no effect, 100 complete control

COC(=O)Oc1c(C)nn(C)c(=O)c1-c1c(C(F)(F)F)ccc2ccccc12 [Compound 149]
Plant response rating, Sedge, Umbrella [1]: 0 | Plant response rating, Barnyardgrass [2]: 0 | Plant response rating, Rice (rice (Oryza sativa)): 0 | Plant response rating, Ducksalad [3]: 0 | Plant response rating, Foxtail, Giant [4, 12]: 40 | Plant response rating, Foxtail, Giant [4, 13]: 80 | Foxtail, Giant plant response rating [4, 14]: 30 | Plant response rating, Foxtail, Giant [4, 15]: 90 | Plant response rating, Corn (corn (Zea mays); [16]): 20 | Plant response rating, Corn (corn (Zea mays); [17]): 30 | Plant response rating, Ryegrass, Italian [5, 12]: 70 | Plant response rating, Ryegrass, Italian [5, 13]: 100 | Plant response rating, Ryegrass, Italian [5, 15]: 90 | Plant response rating, Ragweed [6, 12]: 90 | Plant response rating, Ragweed [6, 13]: 90 | Plant response rating, Ragweed [6, 15]: 90 | Plant response rating, Barnyardgrass [7, 12]: 20 | Plant response rating, Barnyardgrass [7, 13]: 20 | Barnyardgrass plant response rating [7, 14]: 0 | Plant response rating, Barnyardgrass [7, 15]: 70 | Plant response rating, Pigweed [8, 12]: 90 | Plant response rating, Pigweed [8, 13]: 100 | Pigweed plant response rating [8, 14]: 100 | Plant response rating, Pigweed [8, 15]: 100 | Plant response rating, Kochia (kochia (Kochia scoparia); [12]): 80 | Plant response rating, Kochia (kochia (Kochia scoparia); [13]): 100 | Kochia plant response rating (kochia (Kochia scoparia); [14]): 40 | Plant response rating, Kochia (kochia (Kochia scoparia); [15]): 90 | Plant response rating, Wheat [9, 16]: 20 | Plant response rating, Wheat [9, 17]: 70 | Plant response rating, Galium [10, 16]: 90 | Plant response rating, Galium [10, 17]: 100 | Plant response rating, Blackgrass [11, 16]: 30 | Plant response rating, Blackgrass [11, 17]: 70

CCC(=O)Oc1c(Br)nn(C)c(=O)c1-c1c(C)ccc2ccccc12 [Compound 156]
Plant response rating, Sedge, Umbrella [1]: 75 | Plant response rating, Barnyardgrass [2]: 0 | Plant response rating, Rice (rice (Oryza sativa)): 0 | Plant response rating, Ducksalad [3]: 60 | Plant response rating, Foxtail, Giant [4, 18]: 90 | Plant response rating, Foxtail, Giant [4, 13]: 90 | Plant response rating, Foxtail, Giant [4, 19]: 80 | Plant response rating, Foxtail, Giant [4, 15]: 90 | Plant response rating, Corn (corn (Zea mays); [20]): 0 | Plant response rating, Corn (corn (Zea mays); [17]): 30 | Plant response rating, Ryegrass, Italian [5, 18]: 90 | Plant response rating, Ryegrass, Italian [5, 13]: 100 | Plant response rating, Ryegrass, Italian [5, 19]: 90 | Plant response rating, Ryegrass, Italian [5, 15]: 100 | Plant response rating, Ragweed [6, 18]: 90 | Plant response rating, Ragweed [6, 13]: 100 | Plant response rating, Ragweed [6, 19]: 90 | Plant response rating, Ragweed [6, 15]: 90 | Plant response rating, Barnyardgrass [7, 18]: 70 | Plant response rating, Barnyardgrass [7, 13]: 90 | Plant response rating, Barnyardgrass [7, 19]: 70 | Plant response rating, Barnyardgrass [7, 15]: 100 | Plant response rating, Pigweed [8, 18]: 90 | Plant response rating, Pigweed [8, 13]: 100 | Plant response rating, Pigweed [8, 19]: 100 | Plant response rating, Pigweed [8, 15]: 100 | Plant response rating, Kochia (kochia (Kochia scoparia); [18]): 80 | Plant response rating, Kochia (kochia (Kochia scoparia); [13]): 100 | Plant response rating, Kochia (kochia (Kochia scoparia); [19]): 50 | Plant response rating, Kochia (kochia (Kochia scoparia); [15]): 100 | Plant response rating, Wheat [9, 20]: 30 | Plant response rating, Wheat [9, 17]: 60 | Plant response rating, Galium [10, 20]: 100 | Plant response rating, Galium [10, 17]: 100 | Plant response rating, Blackgrass [11, 20]: 60 | Plant response rating, Blackgrass [11, 17]: 90

Cc1nn(C)c(=O)c(-c2ccc(Cl)c3ccccc23)c1OS(=O)(=O)C(F)(F)F [Compound 158]
Plant response rating, Sedge, Umbrella [1]: 65 | Plant response rating, Barnyardgrass [2]: 0 | Plant response rating, Rice (rice (Oryza sativa)): 20 | Plant response rating, Ducksalad [3]: 0 | Plant response rating, Foxtail, Giant [4, 18]: 30 | Plant response rating, Foxtail, Giant [4, 13]: 60 | Plant response rating, Foxtail, Giant [4, 19]: 10 | Plant response rating, Foxtail, Giant [4, 15]: 40 | Plant response rating, Corn (corn (Zea mays); [20]): 0 | Plant response rating, Corn (corn (Zea mays); [17]): 0 | Plant response rating, Ryegrass, Italian [5, 18]: 90 | Plant response rating, Ryegrass, Italian [5, 13]: 100 | Plant response rating, Ryegrass, Italian [5, 19]: 80 | Plant response rating, Ryegrass, Italian [5, 15]: 80 | Plant response rating, Ragweed [6, 18]: 90 | Plant response rating, Ragweed [6, 13]: 100 | Plant response rating, Ragweed [6, 19]: 50 | Plant response rating, Ragweed [6, 15]: 80 | Plant response rating, Barnyardgrass [7, 18]: 10 | Plant response rating, Barnyardgrass [7, 13]: 50 | Plant response rating, Barnyardgrass [7, 19]: 10 | Plant response rating, Barnyardgrass [7, 15]: 60 | Plant response rating, Pigweed [8, 18]: 80 | Plant response rating, Pigweed [8, 13]: 100 | Plant response rating, Pigweed [8, 19]: 10 | Plant response rating, Pigweed [8, 15]: 100 | Plant response rating, Kochia (kochia (Kochia scoparia); [18]): 90 | Plant response rating, Kochia (kochia (Kochia scoparia); [13]): 100 | Plant response rating, Kochia (kochia (Kochia scoparia); [19]): 30 | Plant response rating, Kochia (kochia (Kochia scoparia); [15]): 40 | Plant response rating, Wheat [9, 20]: 0 | Plant response rating, Wheat [9, 17]: 0 | Plant response rating, Galium [10, 20]: 80 | Plant response rating, Galium [10, 17]: 90 | Plant response rating, Blackgrass [11, 20]: 50 | Plant response rating, Blackgrass [11, 17]: 60

Cc1nn(C)c(=O)c(-c2ccc(Cl)c3ccccc23)c1OC(=O)C(F)(F)F [Compound 159]
Plant response rating, Sedge, Umbrella [1]: 50 | Plant response rating, Barnyardgrass [2]: 0 | Plant response rating, Rice (rice (Oryza sativa)): 0 | Plant response rating, Ducksalad [3]: 0 | Plant response rating, Foxtail, Giant [4, 18]: 50 | Plant response rating, Foxtail, Giant [4, 13]: 80 | Plant response rating, Foxtail, Giant [4, 19]: 60 | Plant response rating, Foxtail, Giant [4, 15]: 80 | Plant response rating, Corn (corn (Zea mays); [20]): 20 | Plant response rating, Corn (corn (Zea mays); [17]): 40 | Plant response rating, Ryegrass, Italian [5, 18]: 100 | Plant response rating, Ryegrass, Italian [5, 13]: 100 | Plant response rating, Ryegrass, Italian [5, 19]: 100 | Plant response rating, Ryegrass, Italian [5, 15]: 100 | Plant response rating, Ragweed [6, 18]: 100 | Plant response rating, Ragweed [6, 13]: 100 | Plant response rating, Ragweed [6, 19]: 80 | Plant response rating, Ragweed [6, 15]: 80 | Plant response rating, Barnyardgrass [7, 18]: 40 | Plant response rating, Barnyardgrass [7, 13]: 80 | Plant response rating, Barnyardgrass [7, 19]: 50 | Plant response rating, Barnyardgrass [7, 15]: 80 | Plant response rating, Pigweed [8, 18]: 60 | Plant response rating, Pigweed [8, 13]: 80 | Plant response rating, Pigweed [8, 19]: 100 | Plant response rating, Pigweed [8, 15]: 100 | Plant response rating, Kochia (kochia (Kochia scoparia); [18]): 100 | Plant response rating, Kochia (kochia (Kochia scoparia); [13]): 100 | Plant response rating, Kochia (kochia (Kochia scoparia); [19]): 100 | Plant response rating, Kochia (kochia (Kochia scoparia); [15]): 100 | Plant response rating, Wheat [9, 20]: 0 | Plant response rating, Wheat [9, 17]: 30 | Plant response rating, Galium [10, 20]: 100 | Plant response rating, Galium [10, 17]: 100 | Plant response rating, Blackgrass [11, 20]: 70 | Plant response rating, Blackgrass [11, 17]: 70
